ChEMBL document CHEMBL1139874, “New diphenylacetylenes as probes for positron emission tomographic imaging of amyloid plaques” (J Med Chem, 2007)
One block for each molecule: values may come before it.

Tests used:
[1] = molecular target: Amyloid-beta precursor protein (Homo sapiens, UniProt P05067); experiment: Displacement of [125I]IMPY from human beta amyloid plaque in brain homogenates; assay type: tissue-based
[2] = tested on: Muscle tissue; experiment: Biodistribution in ICR mouse muscle at 5 to 10 uCi, iv after 2 mins; assay type: ADME, organism-based; settings: in vivo
[3] = tested on: Zone of skin; experiment: Biodistribution in ICR mouse skin at 5 to 10 uCi, iv after 2 mins; assay type: ADME, organism-based; settings: in vivo
[4] = tested on: Liver; experiment: Biodistribution in ICR mouse liver at 5 to 10 uCi, iv after 2 mins; assay type: ADME, organism-based; settings: in vivo
[5] = tested on: Liver; experiment: Biodistribution in ICR mouse liver at 5 to 10 uCi, iv after 30 mins; assay type: ADME, organism-based; settings: in vivo, 0.5 h
[6] = tested on: Brain; experiment: Biodistribution in ICR mouse brain at 5 to 10 uCi, iv after 2 mins; assay type: ADME, organism-based; settings: in vivo
[7] = tested on: Heart; experiment: Biodistribution in ICR mouse heart at 5 to 10 uCi, iv after 30 mins; assay type: ADME, organism-based; settings: in vivo, 0.5 h
[8] = tested on: Spleen; experiment: Biodistribution in ICR mouse spleen at 5 to 10 uCi, iv after 2 hrs; assay type: ADME, organism-based; settings: in vivo
[9] = tested on: Muscle tissue; experiment: Biodistribution in ICR mouse muscle at 5 to 10 uCi, iv after 1 hr; assay type: ADME, organism-based; settings: in vivo
[10] = tested on: Heart; experiment: Biodistribution in ICR mouse heart at 5 to 10 uCi, iv after 1 hr; assay type: ADME, organism-based; settings: in vivo
[11] = tested on: Kidney; experiment: Biodistribution in ICR mouse kidney at 5 to 10 uCi, iv after 30 mins; assay type: ADME, organism-based; settings: in vivo, 0.5 h
[12] = tested on: Bone; experiment: Biodistribution in ICR mouse bone at 5 to 10 uCi, iv after 2 hrs; assay type: ADME, organism-based, Bone element; settings: in vivo
[13] = tested on: Bone; experiment: Biodistribution in ICR mouse bone at 5 to 10 uCi, iv after 1 hr; assay type: ADME, organism-based, Bone element; settings: in vivo
[14] = tested on: Lung; experiment: Biodistribution in ICR mouse lung at 5 to 10 uCi, iv after 2 mins; assay type: ADME, organism-based; settings: in vivo
[15] = tested on: Lung; experiment: Biodistribution in ICR mouse lung at 5 to 10 uCi, iv after 1 hr; assay type: ADME, organism-based; settings: in vivo
[16] = tested on: Muscle tissue; experiment: Biodistribution in ICR mouse muscle at 5 to 10 uCi, iv after 30 mins; assay type: ADME, organism-based; settings: in vivo, 0.5 h
[17] = tested on: Brain; experiment: Biodistribution in ICR mouse brain at 5 to 10 uCi, iv after 1 hr; assay type: ADME, organism-based; settings: in vivo
[18] = tested on: Heart; experiment: Biodistribution in ICR mouse heart at 5 to 10 uCi, iv after 2 hrs; assay type: ADME, organism-based; settings: in vivo
[19] = tested on: Zone of skin; experiment: Biodistribution in ICR mouse skin at 5 to 10 uCi, iv after 30 mins; assay type: ADME, organism-based; settings: in vivo, 0.5 h
[20] = tested on: Spleen; experiment: Biodistribution in ICR mouse spleen at 5 to 10 uCi, iv after 30 mins; assay type: ADME, organism-based; settings: in vivo, 0.5 h
[21] = tested on: Bone; experiment: Biodistribution in ICR mouse bone at 5 to 10 uCi, iv after 30 mins; assay type: ADME, organism-based, Bone element; settings: in vivo, 0.5 h
[22] = tested on: Heart; experiment: Biodistribution in ICR mouse heart at 5 to 10 uCi, iv after 2 mins; assay type: ADME, organism-based; settings: in vivo
[23] = tested on: Kidney; experiment: Biodistribution in ICR mouse kidney at 5 to 10 uCi, iv after 2 mins; assay type: ADME, organism-based; settings: in vivo
[24] = tested on: Lung; experiment: Biodistribution in ICR mouse lung at 5 to 10 uCi, iv after 30 mins; assay type: ADME, organism-based; settings: in vivo, 0.5 h
[25] = tested on: Kidney; experiment: Biodistribution in ICR mouse kidney at 5 to 10 uCi, iv after 2 hrs; assay type: ADME, organism-based; settings: in vivo
[26] = tested on: Zone of skin; experiment: Biodistribution in ICR mouse skin at 5 to 10 uCi, iv after 1 hr; assay type: ADME, organism-based; settings: in vivo
[27] = tested on: Blood; experiment: Biodistribution in ICR mouse blood at 5 to 10 uCi, iv after 2 hrs; assay type: ADME, organism-based; settings: in vivo
[28] = tested on: Liver; experiment: Biodistribution in ICR mouse liver at 5 to 10 uCi, iv after 2 hrs; assay type: ADME, organism-based; settings: in vivo
[29] = Partition coefficient, log P at pH 7.4; assay type: physicochemical; settings: octanol/water
[30] = tested on: Zone of skin; experiment: Biodistribution in ICR mouse skin at 5 to 10 uCi, iv after 2 hrs; assay type: ADME, organism-based; settings: in vivo
[31] = tested on: Brain; experiment: Biodistribution in ICR mouse brain at 5 to 10 uCi, iv after 30 mins; assay type: ADME, organism-based; settings: in vivo, 0.5 h
[32] = tested on: Blood; experiment: Biodistribution in ICR mouse blood at 5 to 10 uCi, iv after 30 mins; assay type: ADME, organism-based; settings: in vivo, 0.5 h
[33] = tested on: Bone; experiment: Biodistribution in ICR mouse bone at 5 to 10 uCi, iv after 2 mins; assay type: ADME, organism-based, Bone element; settings: in vivo
[34] = tested on: Brain; experiment: Biodistribution in ICR mouse brain at 5 to 10 uCi, iv after 2 hrs; assay type: ADME, organism-based; settings: in vivo
[35] = tested on: Spleen; experiment: Biodistribution in ICR mouse spleen at 5 to 10 uCi, iv after 2 mins; assay type: ADME, organism-based; settings: in vivo
[36] = tested on: Lung; experiment: Biodistribution in ICR mouse lung at 5 to 10 uCi, iv after 2 hrs; assay type: ADME, organism-based; settings: in vivo
[37] = tested on: Spleen; experiment: Biodistribution in ICR mouse spleen at 5 to 10 uCi, iv after 1 hr; assay type: ADME, organism-based; settings: in vivo
[38] = tested on: Kidney; experiment: Biodistribution in ICR mouse kidney at 5 to 10 uCi, iv after 1 hr; assay type: ADME, organism-based; settings: in vivo
[39] = tested on: Blood; experiment: Biodistribution in ICR mouse blood at 5 to 10 uCi, iv after 1 hr; assay type: ADME, organism-based; settings: in vivo
[40] = tested on: Liver; experiment: Biodistribution in ICR mouse liver at 5 to 10 uCi, iv after 1 hr; assay type: ADME, organism-based; settings: in vivo
[41] = tested on: Blood; experiment: Biodistribution in ICR mouse blood at 5 to 10 uCi, iv after 2 mins; assay type: ADME, organism-based; settings: in vivo
[42] = tested on: Muscle tissue; experiment: Biodistribution in ICR mouse muscle at 5 to 10 uCi, iv after 2 hrs; assay type: ADME, organism-based; settings: in vivo

Sequence of Amyloid-beta precursor protein (P05067 whole entry): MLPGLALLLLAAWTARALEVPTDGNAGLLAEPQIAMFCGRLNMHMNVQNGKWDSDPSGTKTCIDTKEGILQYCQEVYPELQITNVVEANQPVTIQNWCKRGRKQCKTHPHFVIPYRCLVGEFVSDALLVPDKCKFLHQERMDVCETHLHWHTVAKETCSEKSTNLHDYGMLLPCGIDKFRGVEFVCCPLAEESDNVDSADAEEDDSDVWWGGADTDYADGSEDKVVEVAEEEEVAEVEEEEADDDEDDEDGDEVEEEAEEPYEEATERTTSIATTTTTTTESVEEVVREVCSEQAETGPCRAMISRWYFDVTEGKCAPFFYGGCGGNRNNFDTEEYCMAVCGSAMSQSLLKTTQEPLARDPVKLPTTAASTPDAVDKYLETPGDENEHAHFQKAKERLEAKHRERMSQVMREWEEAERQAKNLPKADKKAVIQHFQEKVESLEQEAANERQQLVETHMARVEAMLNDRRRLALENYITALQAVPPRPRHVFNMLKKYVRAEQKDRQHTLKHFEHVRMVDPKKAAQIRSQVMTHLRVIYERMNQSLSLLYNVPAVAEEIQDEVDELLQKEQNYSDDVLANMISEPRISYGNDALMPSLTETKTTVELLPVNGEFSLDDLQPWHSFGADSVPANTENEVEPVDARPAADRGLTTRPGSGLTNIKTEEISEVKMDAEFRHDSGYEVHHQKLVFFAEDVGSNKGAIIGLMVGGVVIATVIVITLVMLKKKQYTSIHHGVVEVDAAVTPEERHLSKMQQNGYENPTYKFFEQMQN

SMILES: CNc1ccc(C#Cc2ccc(O)cc2)cc1
- Ki [1]: 1.5 nM

SMILES: CNc1ccc(C#Cc2ccc(OCCOCCF)cc2)cc1
- Ki [1]: 1.2 nM

SMILES: CN(C)c1ccc(C#Cc2ccc(OCCOCCOCCO)cc2)cc1
- Ki [1]: 3.4 nM

SMILES: CN(C)c1ccc(C#Cc2ccc(OCCOCCOCCF)cc2)cc1
- Ki [1]: 2.9 nM

SMILES: Nc1ccc(C#Cc2ccc(N)cc2)cc1
- Ki [1]: 76 nM

SMILES: COc1ccc(C#Cc2ccc(N)cc2)cc1
- Ki [1]: 2.9 nM

SMILES: COc1ccc(C#Cc2ccc(O)cc2)cc1
- Ki [1]: 2.9 nM

Results, then the molecule that gave them:

- Ki [1]: 5 nM
SMILES: CN(C)c1ccc(C#Cc2ccc(OCCOCCF)cc2)cc1

- Drug uptake [2]: 0.91 % ID/g
- Drug uptake [3]: 0.85 % ID/g
- Drug uptake [4]: 19.3 % ID/g
- Drug uptake [5]: 11.2 % ID/g
- Drug uptake [6]: 5.41 % ID/g
- Drug uptake [7]: 2.82 % ID/g
- Drug uptake [8]: 2.31 % ID/g
- Drug uptake [9]: 1.21 % ID/g
- Drug uptake [10]: 2.48 % ID/g
- Drug uptake [11]: 4.75 % ID/g
- Drug uptake [12]: 1.65 % ID/g
- Drug uptake [13]: 1.36 % ID/g
- Drug uptake [14]: 11.1 % ID/g
- Drug uptake [15]: 3.82 % ID/g
- Drug uptake [16]: 1.38 % ID/g
- Drug uptake [17]: 2.06 % ID/g
- Drug uptake [18]: 2.11 % ID/g
- Drug uptake [19]: 2.23 % ID/g
- Drug uptake [20]: 2.94 % ID/g
- Drug uptake [21]: 1.41 % ID/g
- Drug uptake [22]: 10.5 % ID/g
- Drug uptake [23]: 12.9 % ID/g
- Drug uptake [24]: 4.66 % ID/g
- Drug uptake [25]: 4.16 % ID/g
- Drug uptake [26]: 1.71 % ID/g
- Drug uptake [27]: 5.17 % ID/g
- Drug uptake [28]: 8.85 % ID/g
- logD [29]: 3.12
- Drug uptake [30]: 1.67 % ID/g
- Drug uptake [31]: 3.69 % ID/g
- Drug uptake [32]: 6.13 % ID/g
- Drug uptake [33]: 1.78 % ID/g
- Drug uptake [34]: 1.34 % ID/g
- Drug uptake [35]: 5.12 % ID/g
- Drug uptake [36]: 3.38 % ID/g
- Drug uptake [37]: 2.38 % ID/g
- Drug uptake [38]: 4.79 % ID/g
- Drug uptake [39]: 5.68 % ID/g
- Drug uptake [40]: 9.99 % ID/g
- Drug uptake [41]: 7.33 % ID/g
- Drug uptake [42]: 1.03 % ID/g
SMILES: CN(C)c1ccc(C#Cc2ccc(OCCOCC[18F])cc2)cc1

- Drug uptake [2]: 0.79 % ID/g
- Drug uptake [3]: 0.68 % ID/g
- Drug uptake [4]: 23.2 % ID/g
- Drug uptake [5]: 13.8 % ID/g
- Drug uptake [6]: 6.78 % ID/g
- Drug uptake [7]: 1.49 % ID/g
- Drug uptake [8]: 1.17 % ID/g
- Drug uptake [9]: 0.51 % ID/g
- Drug uptake [10]: 1.04 % ID/g
- Drug uptake [11]: 2.68 % ID/g
- Drug uptake [12]: 0.7 % ID/g
- Drug uptake [13]: 0.56 % ID/g
- Drug uptake [14]: 8.38 % ID/g
- Drug uptake [15]: 1.26 % ID/g
- Drug uptake [16]: 0.67 % ID/g
- Drug uptake [17]: 0.77 % ID/g
- Drug uptake [18]: 0.84 % ID/g
- Drug uptake [19]: 1.41 % ID/g
- Drug uptake [20]: 1.39 % ID/g
- Drug uptake [21]: 0.64 % ID/g
- Drug uptake [22]: 9.97 % ID/g
- Drug uptake [23]: 12.4 % ID/g
- Drug uptake [24]: 2.26 % ID/g
- Drug uptake [25]: 2.02 % ID/g
- Drug uptake [26]: 1.28 % ID/g
- Drug uptake [27]: 2.35 % ID/g
- Drug uptake [28]: 6.58 % ID/g
- logD [29]: 3.18
- Drug uptake [30]: 0.68 % ID/g
- Drug uptake [31]: 1.57 % ID/g
- Drug uptake [32]: 2.97 % ID/g
- Drug uptake [33]: 1.51 % ID/g
- Drug uptake [34]: 0.42 % ID/g
- Drug uptake [35]: 4.61 % ID/g
- Drug uptake [36]: 1.47 % ID/g
- Drug uptake [37]: 1.13 % ID/g
- Drug uptake [38]: 2.53 % ID/g
- Drug uptake [39]: 2.51 % ID/g
- Drug uptake [40]: 8.13 % ID/g
- Drug uptake [41]: 5.72 % ID/g
- Drug uptake [42]: 0.42 % ID/g
SMILES: CN(C)c1ccc(C#Cc2ccc(OCCOCCOCC[18F])cc2)cc1

- Ki [1]: 3.8 nM
SMILES: CN(C)c1ccc(C#Cc2ccc(OCCOCCO)cc2)cc1
